Data as given in patent US9265268B2, “Method of handling bananas” (priority 2009, dated 2016).

What was measured:
Assay type in all cases: in vivo, Musa
bananas [1] = experiment: Example US-3: comparison of production batches of MAP
From the text: Bananas were harvested and shipped to Ephrata, Pa. as described in Example US-1 above. Upon arrival, bananas were removed from poly liners and placed into one of three types of bags: • (1) T-bags (as described above) • (2) MAP bags type M (as described above) • (3) MAP bags type D (as described above). Bananas in bags were exposed to the ripening cycle described above, except that the first day (“day 0”) of the ripening cycle was omitted. The bananas that were exposed to 1-MCP received that exposure when they were at color stage 2 to 2.2.
Additionally, a group of bananas remained in their bags at 17.8° C. for 17 days after exposure to 1-MCP and were evaluated at the end of those 17 days.

bananas [2] = experiment: Example US-7a: various number of bananas per bag (appearance); parameters: scale not given here; settings: 1,000 ppb 1-MCP, Day Number 7
Protocol: Bananas were handled and tested as in Example US-1, except that the number of bananas per bag was varied. Concentration of 1-MCP was 1,000 ppb. Also, two different types of MAP bags were used: type M and type D, as described above. Bananas were evaluated on day #7 after treatment with 1-MCP.

bananas [3] = experiment: Example US-1: bananas transferred to MAP after shipment
From the text: Bananas were harvested and shipped in to Ephrata, Pa., using standard commercial practices, in standard commercial shipping bags. For shipping, bags were placed in cartons; each carton held sufficient bags so that there were approximately 18.1 kg (40 lb.) of bananas in each carton.
After arrival in Ephrata, Pa., bananas were removed from the bags in which they were shipped and placed into new bags, which were either MAP (as described above) or T-bags (as described above). The new bags held approximately 1.3 kg (3 lb.) each. The new bags were twisted and secured shut. Bags were exposed to the 5-day ripening method used in Example 2 above. After ripening, the bags were transported to Spring House, Pa. in a refrigerated truck. Upon arrival, color stage of the bananas was 3.5 to 4.5. Bags were then placed into sealed tents for 12 hours at 13.3° C. […] After that 12-hour period, samples were aired for 1 hour and then kept in place at 13.3° C. (56° F.) for 10 hours and then transferred to an evaluation room, which was maintained at 17.8° C. (64° F.).
All bags remained in the evaluation room for 8 days. Bananas were visually inspected each day, whether they were still in bags or not. The bags were divided into three groups: • A. remained in the bags for 3 days, then removed from the bags for the remaining 5 days; • B. remained in the bags for 4 days, then removed from the bags for the remaining 4 days. • C. remained in the bags for 8 days, then removed on the eighth day for evaluation.

[4] = MAP with non-zero 1-MCP, 17 days in bags at 17.8° C., versus MAP without 1-MCP or T-bags with 1-MCP

Structure (SMILES): CC1=CC1 [1-MCP, 1-methylcyclopropene]
- development of sugar spots on holding at 17.8° C. (bananas [1]; MAP and non-zero 1-MCP): delayed the development of sugar spots
- color-stage numbers (bananas [1]; [4]): lower color-stage numbers
- number of sugar spots (bananas [1]; [4]): lower number of sugar spots
- Color Stage (bananas [2]; MAP type D, 1 bananas per bag): 6.7
- Sugar Spots (bananas [2]; MAP type D, 1 bananas per bag): 0.7
- Color Stage (bananas [2]; MAP type D, 2 bananas per bag): 5.5
- Sugar Spots (bananas [2]; MAP type D, 2 bananas per bag): 1.0
- Color Stage (bananas [2]; MAP type D, 3 bananas per bag): 5.5
- Sugar Spots (bananas [2]; MAP type D, 3 bananas per bag): 0.3
- Color Stage (bananas [2]; MAP type D, 4 bananas per bag): 5.5
- Sugar Spots (bananas [2]; MAP type D, 4 bananas per bag): 0.7
- Color Stage (bananas [2]; MAP type D, 5 bananas per bag): 4.8
- Sugar Spots (bananas [2]; MAP type D, 5 bananas per bag): 1.3
- Color Stage (bananas [2]; MAP type D, 6 bananas per bag): 5.2
- Sugar Spots (bananas [2]; MAP type D, 6 bananas per bag): 0.3
- Color Stage (bananas [2]; MAP type D, 7 bananas per bag): 4.8
- Sugar Spots (bananas [2]; MAP type D, 7 bananas per bag): 0.7
- Color Stage (bananas [2]; MAP type D, 8 bananas per bag): 4.5
- Sugar Spots (bananas [2]; MAP type D, 8 bananas per bag): 0.0
- Color Stage (bananas [2]; MAP type D, 9 bananas per bag): 4.5
- Sugar Spots (bananas [2]; MAP type D, 9 bananas per bag): 0.7
- Color Stage (bananas [2]; MAP type D, 10 bananas per bag): 4.5
- Sugar Spots (bananas [2]; MAP type D, 10 bananas per bag): 0.0
- Color Stage (bananas [2]; MAP type D, 11 bananas per bag): 4.3
- Sugar Spots (bananas [2]; MAP type D, 11 bananas per bag): 0.0
- Color Stage (bananas [2]; MAP type D, 12 bananas per bag): 4.5
- Sugar Spots (bananas [2]; MAP type D, 12 bananas per bag): 0.0
- Color Stage (bananas [2]; MAP type M, 1 bananas per bag): 6.2
- Sugar Spots (bananas [2]; MAP type M, 1 bananas per bag): 2.0
- Color Stage (bananas [2]; MAP type M, 2 bananas per bag): 5.3
- Sugar Spots (bananas [2]; MAP type M, 2 bananas per bag): 1.7
- Color Stage (bananas [2]; MAP type M, 3 bananas per bag): 4.8
- Sugar Spots (bananas [2]; MAP type M, 3 bananas per bag): 2.0
- Color Stage (bananas [2]; MAP type M, 4 bananas per bag): 5.3
- Sugar Spots (bananas [2]; MAP type M, 4 bananas per bag): 1.0
- Color Stage (bananas [2]; MAP type M, 5 bananas per bag): 5.2
- Sugar Spots (bananas [2]; MAP type M, 5 bananas per bag): 1.0
- Color Stage (bananas [2]; MAP type M, 6 bananas per bag): 4.8
- Sugar Spots (bananas [2]; MAP type M, 6 bananas per bag): 1.0
- Color Stage (bananas [2]; MAP type M, 7 bananas per bag): 5.0
- Sugar Spots (bananas [2]; MAP type M, 7 bananas per bag): 0.0
- Color Stage (bananas [2]; MAP type M, 8 bananas per bag): 4.5
- Sugar Spots (bananas [2]; MAP type M, 8 bananas per bag): 1.0
- Color Stage (bananas [2]; MAP type M, 9 bananas per bag): 4.5
- Sugar Spots (bananas [2]; MAP type M, 9 bananas per bag): 0.7
- Color Stage (bananas [2]; MAP type M, 10 bananas per bag): 5.2
- Sugar Spots (bananas [2]; MAP type M, 10 bananas per bag): 1.0
- Color Stage (bananas [2]; MAP type M, 11 bananas per bag): 4.5
- Sugar Spots (bananas [2]; MAP type M, 11 bananas per bag): 0.0
- Color Stage (bananas [2]; MAP type M, 12 bananas per bag): 4.5
- Sugar Spots (bananas [2]; MAP type M, 12 bananas per bag): 0.0
- development of color and sugar spots (bananas [3]; 1000 ppb versus 300 ppb 1-MCP in the same type of bag): slower development of color and sugar spots
- extension of shelf life, compared to T bags with no 1-MCP (bananas [3]; MAP with non-zero 1-MCP): 8 days
- development of color and sugar spots after removal from bags (bananas [3]; MAP, 300 ppb or 1000 ppb 1-MCP versus MAP with zero 1-MCP): slower development of color and sugar spots
- development of color and sugar spots (bananas [3]; MAP, 300 ppb or 1000 ppb 1-MCP versus T-bags): much slower development of color and sugar spots
- development of color and sugar spots (bananas [3]; T-bags, 300 ppb or 1000 ppb 1-MCP versus zero): slower development of color and sugar spots
